Here are results for 16 compounds from ChEMBL document CHEMBL1921760, “Design, synthesis and biological evaluation of 6-pyridylmethylaminopurines as CDK inhibitors” (Bioorg Med Chem, 2011).

A word on the GI50: it is the concentration giving 50% growth inhibition. The low end stands for more potent growth inhibition, the high end for less potent growth inhibition. As usually defined, the IC50 is the concentration needed to halve the response being measured. Lower therefore signals greater potency.

Series [1] can be described thus: Metabolic stability in mouse liver microsomes assessed as compound metabolized at 10 uM after 30 mins by LC-MS analysis. The series is classed as ADME, Microsome. To be noted: read-out: Activity. In general terms: Liver microsomes are vesicles of endoplasmic reticulum, rich in cytochrome P450 enzymes.
The test system of series [2] is HT-29. The series can be described thus: Growth inhibition of human HT-29 cells after 96 hrs by sulforhodamine B assay. It counts as functional. To be noted: HT-29, 96 h. For orientation: In SRB staining, fixed cells bind dye roughly in proportion to their protein.
The subject of series [3] is CH1. The series can be described thus: Growth inhibition of doxorubicin-resistant human CH1 cells after 96 hrs by sulforhodamine B assay. It counts as functional. To be noted: CH1, 96 h.
The nature of series [4]: Inhibition of PKA.
The subject of series [5] is CH1. The series can be described thus: Growth inhibition of doxorubicin-susceptible human CH1 cells after 96 hrs by sulforhodamine B assay. The series is classed as functional. To be noted: CH1, 96 h.
Series [6] concerns A2780. The series can be described thus: Growth inhibition of cisplatin-susceptible human A2780 cells after 96 hrs by sulforhodamine B assay. The series is classed as functional. As to conditions: A2780, 96 h.
In series [7] the test system is A2780. The series can be described thus: Growth inhibition of cisplatin-resistant human A2780 cells after 96 hrs by sulforhodamine B assay. It counts as functional. To be noted: A2780, 96 h.
The test system of series [8] is HCT-116. As to the kind of experiment: Growth inhibition of human HCT116 cells after 96 hrs by sulforhodamine B assay. The series is classed as functional. As to conditions: HCT-116, 96 h.
In series [9] the test system is KM12. As to the kind of experiment: Growth inhibition of human KM12 cells after 96 hrs by sulforhodamine B assay. As to conditions: KM12, 96 h. The series is classed as functional.
Series [10] addresses Cyclin-dependent kinase 4/cyclin D1 (Homo sapiens, UniProt P11802). The series can be described thus: Inhibition of CDK4/cyclin D1. It counts as protein-complex assay.
Series [11] has as its target Cyclin-dependent kinase 7/ cyclin H (Homo sapiens, UniProt P50613). The series can be described thus: Inhibition of CDK7/cyclin H. It counts as protein-complex assay.
In series [12] the target is Cyclin-dependent kinase 1/cyclin B1 (Homo sapiens, UniProt P06493). As to the kind of experiment: Inhibition of CDK1/cyclin B. It counts as protein-complex assay.
Cyclin-dependent kinase 1/cyclin B1, sequence (P06493 whole entry): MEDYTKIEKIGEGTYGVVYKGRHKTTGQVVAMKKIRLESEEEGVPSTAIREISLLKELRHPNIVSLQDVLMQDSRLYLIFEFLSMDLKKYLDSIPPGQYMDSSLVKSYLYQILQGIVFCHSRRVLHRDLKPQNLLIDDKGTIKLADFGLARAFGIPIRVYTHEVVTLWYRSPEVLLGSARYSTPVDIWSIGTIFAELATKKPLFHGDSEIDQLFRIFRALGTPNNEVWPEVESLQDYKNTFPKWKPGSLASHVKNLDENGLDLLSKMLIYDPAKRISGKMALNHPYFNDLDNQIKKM
Cyclin-dependent kinase 1/cyclin B1, sequence (P14635 whole entry, further chain): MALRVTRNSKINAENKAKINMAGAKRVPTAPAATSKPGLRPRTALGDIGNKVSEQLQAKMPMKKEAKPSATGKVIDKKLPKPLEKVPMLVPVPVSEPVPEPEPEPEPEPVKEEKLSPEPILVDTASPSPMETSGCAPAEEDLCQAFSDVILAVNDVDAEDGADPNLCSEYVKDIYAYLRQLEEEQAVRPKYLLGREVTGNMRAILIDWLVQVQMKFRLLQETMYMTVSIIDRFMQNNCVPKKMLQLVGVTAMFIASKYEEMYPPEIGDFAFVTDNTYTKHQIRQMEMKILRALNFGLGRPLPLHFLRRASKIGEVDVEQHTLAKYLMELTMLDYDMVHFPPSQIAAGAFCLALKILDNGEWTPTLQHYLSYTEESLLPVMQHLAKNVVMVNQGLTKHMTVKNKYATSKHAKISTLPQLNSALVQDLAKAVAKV
Series [13] addresses Mitogen-activated protein kinase 1 (Homo sapiens, UniProt P28482). The series can be described thus: Inhibition of ERK2.

Cyclin-dependent kinase 4/cyclin D1, sequence (P11802 whole entry): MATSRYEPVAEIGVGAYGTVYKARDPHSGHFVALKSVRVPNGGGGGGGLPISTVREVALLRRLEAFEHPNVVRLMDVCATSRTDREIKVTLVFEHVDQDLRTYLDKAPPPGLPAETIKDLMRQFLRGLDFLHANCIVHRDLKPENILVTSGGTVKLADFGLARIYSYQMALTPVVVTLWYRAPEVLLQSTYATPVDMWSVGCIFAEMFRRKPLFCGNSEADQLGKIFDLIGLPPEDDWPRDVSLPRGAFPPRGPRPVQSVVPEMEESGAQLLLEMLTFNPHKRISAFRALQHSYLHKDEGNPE
Cyclin-dependent kinase 4/cyclin D1, sequence (P24385 whole entry, further chain): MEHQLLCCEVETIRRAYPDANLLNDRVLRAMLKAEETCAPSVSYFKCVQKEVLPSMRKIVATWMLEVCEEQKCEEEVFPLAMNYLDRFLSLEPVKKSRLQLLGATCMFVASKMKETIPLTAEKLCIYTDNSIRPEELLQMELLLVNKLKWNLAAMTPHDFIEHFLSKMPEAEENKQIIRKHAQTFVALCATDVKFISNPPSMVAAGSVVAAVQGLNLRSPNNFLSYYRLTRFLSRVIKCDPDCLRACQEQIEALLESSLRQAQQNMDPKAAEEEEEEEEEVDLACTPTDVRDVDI
Mitogen-activated protein kinase 1, sequence (P28482 whole entry): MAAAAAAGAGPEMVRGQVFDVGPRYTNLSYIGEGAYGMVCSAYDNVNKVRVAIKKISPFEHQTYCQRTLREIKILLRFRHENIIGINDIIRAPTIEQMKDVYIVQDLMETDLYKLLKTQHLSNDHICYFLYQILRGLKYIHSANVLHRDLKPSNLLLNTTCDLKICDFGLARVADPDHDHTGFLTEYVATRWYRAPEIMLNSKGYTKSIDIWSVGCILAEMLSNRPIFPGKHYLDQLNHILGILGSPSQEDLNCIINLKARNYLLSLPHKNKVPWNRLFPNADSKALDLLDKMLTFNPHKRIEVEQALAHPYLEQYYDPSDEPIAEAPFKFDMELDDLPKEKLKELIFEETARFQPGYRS
Cyclin-dependent kinase 7/ cyclin H, sequence (P51946 whole entry): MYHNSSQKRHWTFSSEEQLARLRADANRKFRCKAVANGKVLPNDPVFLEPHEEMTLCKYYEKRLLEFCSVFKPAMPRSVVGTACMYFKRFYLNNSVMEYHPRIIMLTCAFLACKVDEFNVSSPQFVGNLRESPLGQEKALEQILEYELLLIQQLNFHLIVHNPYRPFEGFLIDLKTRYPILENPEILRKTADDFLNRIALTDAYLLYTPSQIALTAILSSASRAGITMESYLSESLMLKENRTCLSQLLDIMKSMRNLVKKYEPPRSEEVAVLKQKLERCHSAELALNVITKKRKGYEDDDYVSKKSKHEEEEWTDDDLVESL
Cyclin-dependent kinase 7/ cyclin H, sequence (P50613 whole entry): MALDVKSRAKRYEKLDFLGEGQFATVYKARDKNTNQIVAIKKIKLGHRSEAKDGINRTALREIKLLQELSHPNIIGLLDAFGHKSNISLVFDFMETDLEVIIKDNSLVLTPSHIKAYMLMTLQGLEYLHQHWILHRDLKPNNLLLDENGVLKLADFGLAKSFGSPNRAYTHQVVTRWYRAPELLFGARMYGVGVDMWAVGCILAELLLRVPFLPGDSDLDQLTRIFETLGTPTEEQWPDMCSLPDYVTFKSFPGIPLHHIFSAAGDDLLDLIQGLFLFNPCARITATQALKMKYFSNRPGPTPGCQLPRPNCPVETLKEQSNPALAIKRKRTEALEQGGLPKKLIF

Turning to `CC[C@@H](Nc1nc(NCc2ccccn2)c2ncn(C(C)C)c2n1)C(C)(C)O`, in series [1], the metabolised at 0.5 h, 10 µM is 73%. Besides, the 50% growth inhibitory concentration (GI50) in series [2] was over 50 µM; in series [3], over 50 µM; in series [5] it was over 50 µM; in [6], 34 µM; in series [7], over 50 µM; in series [8] it was over 50 µM. In addition, the GI50 in [9] is over 50 µM. The IC50 in series [4] is over 200 µM.

With `CC[C@@H](Nc1nc(NCc2ccccc2)c2ncn(C(C)C)c2n1)C(C)(C)O`, in series [1], the metabolised at 0.5 h, 10 µM is 52%. For the same compound, the 50% growth inhibitory concentration (GI50) in [2] was 23 µM; in series [3], 19.5 µM; in series [5] it was 23 µM; in series [6] it was 15 µM; in [7], 23 µM; in [8] it was 20 µM. The same compound registered a 50% growth inhibitory concentration (GI50) in [9] of 21 µM. For the same compound, in series [4], the IC50 was 191 µM.

For `CC[C@H](Nc1nc(NCc2ccccc2)c2ncn(C(C)C)c2n1)C(C)(C)O`, the metabolised at 0.5 h, 10 µM in series [1] stood at 73%. Further, the GI50 in series [2] came out at 23 µM; in [5] it was 22 µM; in series [6], 16 µM; in series [7] it was 22 µM; in series [8], 16 µM; in series [9] it was 20 µM. The same compound yielded an IC50 in [4] of 200 µM.

As to `CC[C@H](CO)Nc1nc(NCc2ccccn2)c2ncn(C(C)C)c2n1`, the GI50 is 54 µM in [2]; 23 µM in series [3]; 26 µM in [5]; 21.5 µM in series [6]; 28 µM in series [7]; 26 µM in series [8]. Moreover, in [9], halving of growth (GI50) required 38 µM. Besides, the IC50 in series [4] was over 50 µM; in series [10], 3.8 µM; in [11] it was 0.04 µM.

In the case of `CC[C@H](CO)Nc1nc(NCc2ccncc2)c2ncn(C(C)C)c2n1`, in series [1], the metabolised at 0.5 h, 10 µM came out at 3%. Further, the GI50 in [2] came to 23 µM; in series [5], 8.2 µM; in series [6], 23 µM; in [7], 22 µM; in [8], 10 µM; in series [9], 7 µM. The compound also had an IC50 in series [4] of over 50 µM.

`CCC(O)[C@@H](CC)Nc1nc(NCc2ccccn2)c2ncn(C(C)C)c2n1` (mixture of isomers): the metabolised at 0.5 h, 10 µM in [1] worked out at 88%. The GI50 in series [2] was over 50 µM; in series [3] it was 26 µM; in series [5], 27 µM; in [6], 22 µM; in series [7] it was 40 µM; in [8], 29 µM. The concentration for 50% growth inhibition (GI50) in series [9] is 45 µM. In [4], this compound registered an IC50 of over 200 µM.

Take `CC[C@@H](Nc1nc(NCc2ccccn2)c2ncn(C(C)C)c2n1)C(O)C(C)C` (mixture of isomers): in series [1], the metabolised at 0.5 h, 10 µM is 94%. For the same compound, the concentration for 50% growth inhibition (GI50) is over 50 µM in [2]; over 50 µM in series [3]; over 50 µM in series [5]; 40 µM in [6]; over 50 µM in [7]; over 50 µM in [8]. Moreover, in series [9], the GI50 is over 50 µM. In series [4], this compound displayed a half-maximal inhibitory concentration (IC50) of over 200 µM.

As for `CC[C@@H](Nc1nc(NCc2ccccn2)c2ncn(C(C)C)c2n1)C(O)C(C)(C)C` (mixture of isomers), the metabolised at 0.5 h, 10 µM in series [1] was found to be 93%. In addition, the GI50 in series [2] is 34 µM; in series [3] it was 27 µM; in [5] it was 34 µM; in [6], 23 µM; in [7] it was over 50 µM; in series [8] it was 29 µM. The 50% growth inhibitory concentration (GI50) in series [9] amounted to 45 µM. Also, the IC50 in series [12] was 200 µM; in [4], over 200 µM.

For `CCC(O)[C@@H](CC)Nc1nc(NCc2ccccc2)c2ncn(C(C)C)c2n1` (mixture of isomers), the metabolised at 0.5 h, 10 µM in series [1] worked out at 63%. Also, the GI50 in series [2] amounted to 23 µM; in series [3], 18 µM; in [5], 23 µM; in series [6], 14.5 µM; in series [7], 21 µM; in series [8], 26 µM. Also, the GI50 in series [9] turned out to be 23 µM. Moreover, half-maximal inhibition in series [4] (IC50) required 139 µM.

With `CC[C@@H](Nc1nc(NCc2ccccc2)c2ncn(C(C)C)c2n1)C(O)C(C)C` (mixture of isomers), the metabolised at 0.5 h, 10 µM in series [1] is 83%. The GI50 amounted to 13 µM in series [2]; 19 µM in series [3]; 23 µM in [5]; 17 µM in series [6]; 21 µM in [7]; 22 µM in [8]. The compound further came in with a GI50 in series [9] of 27 µM. In addition, the values for the 50% inhibitory concentration (IC50) in series [4] and in series [13] were 92 µM and over 200 µM, respectively.

With `CC[C@@H](Nc1nc(NCc2ccccc2)c2ncn(C(C)C)c2n1)C(O)C(C)(C)C` (mixture of isomers), the metabolised at 0.5 h, 10 µM in series [1] turned out to be 79%. The 50% growth inhibitory concentration (GI50) in [2] stood at 14.5 µM; in series [3], 19 µM; in series [5], 23 µM; in [6], 18.5 µM; in series [7] it was 23 µM; in [8], 24 µM. This compound gave a 50% growth inhibitory concentration (GI50) in [9] of 17 µM. Further, the IC50 in [4] is 87 µM; in series [10], 200 µM; in series [13] it was over 200 µM.

Take `CCC(O)[C@H](CC)Nc1nc(NCc2ccccn2)c2ncn(C(C)C)c2n1` (mixture of isomers): the metabolised at 0.5 h, 10 µM in [1] stood at 85%. In addition, the GI50 in series [2] is over 50 µM; in [3], 26 µM; in series [5] it was 33 µM; in [6] it was 21 µM; in series [7] it was 23 µM; in [8], 29 µM. In series [9], this compound registered a GI50 of over 50 µM. Also, the IC50 in [4] is over 200 µM.

For `CC[C@H](Nc1nc(NCc2ccccn2)c2ncn(C(C)C)c2n1)C(O)C(C)C` (mixture of isomers), the metabolised at 0.5 h, 10 µM in [1] came to 23%. In addition, the GI50 is over 50 µM in series [2]; over 50 µM in [3]; over 50 µM in series [5]; 35 µM in series [6]; over 50 µM in [7]; over 50 µM in series [8]. This compound also had a GI50 in [9] of over 50 µM. For the same compound, the half-maximal inhibitory concentration (IC50) in series [12] was 200 µM; in [4], over 200 µM.

In the case of `CC[C@H](Nc1nc(NCc2ccccn2)c2ncn(C(C)C)c2n1)C(O)C(C)(C)C` (mixture of isomers), the metabolised at 0.5 h, 10 µM in series [1] stood at 97%. For the same compound, the 50% growth inhibitory concentration (GI50) in [2] is 28 µM; in series [3], 47 µM; in series [5], over 50 µM; in series [6], 38 µM; in [7] it was over 50 µM; in series [8], over 50 µM. The compound further registered a GI50 in series [9] of 36 µM. Also, the IC50 in series [12] was 200 µM; in series [4], over 200 µM.

For the compound `CCC(O)[C@H](CC)Nc1nc(NCc2ccccc2)c2ncn(C(C)C)c2n1` (mixture of isomers), the metabolised at 0.5 h, 10 µM in series [1] was determined as 67%. Also, the GI50 worked out at 23 µM in series [2]; 16 µM in series [6]; 21 µM in [7]; 20 µM in series [8]; 27 µM in [9]. Further, the IC50 in series [4] was over 200 µM; in [10], 20 µM; in [11], 1.1 µM.

For `CC[C@H](Nc1nc(NCc2ccccc2)c2ncn(C(C)C)c2n1)C(O)C(C)(C)C` (mixture of isomers), in series [1], the metabolised at 0.5 h, 10 µM came to 74%. For the same compound, the 50% growth inhibitory concentration (GI50) in [2] came out at 21.5 µM; in [3] it was 21.5 µM; in series [5], 26 µM; in series [6], 21.5 µM; in series [7] it was 23 µM; in [8], 27 µM. The compound also showed a GI50 in series [9] of 19 µM. The IC50 in series [4] and in [13] was over 200 µM in each case.
